Test system: rice
Test: Low temperature assay on rice seedlings
Assay type: in vivo
Method: According to a low temperature assay, we measured parameters including plant height, number of leaf, area of leaf, number of tiller, weight of root at low temperature to completely determine effects of the natural brassinolide analogues on the resistance to low temperature of a plant.
The natural brassinolide analogues, BR1, BR2, BR3, BR4, BR5 and BR6, used herein, were those prepared by the method of Example 1. Respectively the analogues were dissolved into 95% (V/V) ethanol solution, and then diluted with pure water to 1 mg/L, 0.1 mg/L, 0.01 mg/L, 0.001 mg/L and 0.0001 mg/L. In addition, pure water was used as a control.
After rice seeds were disinfected by using 5% sodium hypochlorite solution treatment, they were rinsed with distilled water until their pH>7, placed into a petri dish in a dark incubator, and cultured by using water at 30° C.±2° C. for 9 days. Then respectively the nine-day-old etiolated seedlings of rice were immersed in the above solutions containing different concentrations of the natural brassinolide analogues or pure water, and cultured at the temperature of 1° C., 2° C., 3° C., 4° C. and 5° C. for 24 hr. The parameters including plant height, area of leaf and weight of root after 3, 6, 9 and 12 days and number of leaf and number of tiller after 12 days were measured.

Which results are given for C=C(C(C)C)[C@@H](O)[C@H](O)[C@@H](C)[C@H]1CCC2C3COC(=O)C4C[C@H](O)[C@H](O)C[C@]4(C)C3CC[C@@]21C (stereo partly drawn) [BR3]?
Area of leaf (0.0001 mg/l, 1 °C, 3 days): 9.8 cm^2; Height (0.0001 mg/l, 1 °C, 3 days): 6.8 cm; Weight of root (0.0001 mg/l, 1 °C, 3 days): 2.8 g; Area of leaf (0.0001 mg/l, 1 °C, 6 days): 11 cm^2; Height (0.0001 mg/l, 1 °C, 6 days): 6.9 cm; Weight of root (0.0001 mg/l, 1 °C, 6 days): 3 g; Area of leaf (0.0001 mg/l, 1 °C, 9 days): 12.2 cm^2; Height (0.0001 mg/l, 1 °C, 9 days): 7.1 cm; Weight of root (0.0001 mg/l, 1 °C, 9 days): 3.4 g; Area of leaf (0.0001 mg/l, 1 °C, 12 days): 13.1 cm^2; Height (0.0001 mg/l, 1 °C, 12 days): 7.2 cm; Number of leaf (0.0001 mg/l, 1 °C, 12 days): 3; Number of tiller (0.0001 mg/l, 1 °C, 12 days): 3; Weight of root (0.0001 mg/l, 1 °C, 12 days): 3.9 g; Area of leaf (0.0001 mg/l, 2 °C, 3 days): 10 cm^2; Height (0.0001 mg/l, 2 °C, 3 days): 6.8 cm; Weight of root (0.0001 mg/l, 2 °C, 3 days): 2.8 g; Area of leaf (0.0001 mg/l, 2 °C, 6 days): 11.7 cm^2; Height (0.0001 mg/l, 2 °C, 6 days): 7 cm; Weight of root (0.0001 mg/l, 2 °C, 6 days): 3.0 g; Area of leaf (0.0001 mg/l, 2 °C, 9 days): 12.1 cm^2; Height (0.0001 mg/l, 2 °C, 9 days): 7.1 cm; Weight of root (0.0001 mg/l, 2 °C, 9 days): 3.2 g; Area of leaf (0.0001 mg/l, 2 °C, 12 days): 13 cm^2; Height (0.0001 mg/l, 2 °C, 12 days): 7.4 cm; Number of leaf (0.0001 mg/l, 2 °C, 12 days): 3; Number of tiller (0.0001 mg/l, 2 °C, 12 days): 3; Weight of root (0.0001 mg/l, 2 °C, 12 days): 3.9 g; Area of leaf (0.0001 mg/l, 3 °C, 3 days): 10 cm^2; Height (0.0001 mg/l, 3 °C, 3 days): 6.9 cm; Weight of root (0.0001 mg/l, 3 °C, 3 days): 2.5 g; Area of leaf (0.0001 mg/l, 3 °C, 6 days): 11.8 cm^2; Height (0.0001 mg/l, 3 °C, 6 days): 7.1 cm; Weight of root (0.0001 mg/l, 3 °C, 6 days): 2.6 g; Area of leaf (0.0001 mg/l, 3 °C, 9 days): 12.1 cm^2; Height (0.0001 mg/l, 3 °C, 9 days): 7.4 cm; Weight of root (0.0001 mg/l, 3 °C, 9 days): 2.9 g; Area of leaf (0.0001 mg/l, 3 °C, 12 days): 13.2 cm^2; Height (0.0001 mg/l, 3 °C, 12 days): 7.5 cm; Number of leaf (0.0001 mg/l, 3 °C, 12 days): 3; Number of tiller (0.0001 mg/l, 3 °C, 12 days): 2; Weight of root (0.0001 mg/l, 3 °C, 12 days): 2.9 g; Area of leaf (0.0001 mg/l, 4 °C, 3 days): 10 cm^2; Height (0.0001 mg/l, 4 °C, 3 days): 6.9 cm; Weight of root (0.0001 mg/l, 4 °C, 3 days): 2.5 g; Area of leaf (0.0001 mg/l, 4 °C, 6 days): 11.5 cm^2; Height (0.0001 mg/l, 4 °C, 6 days): 7.3 cm; Weight of root (0.0001 mg/l, 4 °C, 6 days): 2.6 g; Area of leaf (0.0001 mg/l, 4 °C, 9 days): 13 cm^2; Height (0.0001 mg/l, 4 °C, 9 days): 7.5 cm; Weight of root (0.0001 mg/l, 4 °C, 9 days): 2.9 g; Area of leaf (0.0001 mg/l, 4 °C, 12 days): 13.4 cm^2; Height (0.0001 mg/l, 4 °C, 12 days): 7.5 cm; Number of leaf (0.0001 mg/l, 4 °C, 12 days): 3; Number of tiller (0.0001 mg/l, 4 °C, 12 days): 2; Weight of root (0.0001 mg/l, 4 °C, 12 days): 2.9 g; Area of leaf (0.0001 mg/l, 5 °C, 3 days): 10.2 cm^2; Height (0.0001 mg/l, 5 °C, 3 days): 7.0 cm; Weight of root (0.0001 mg/l, 5 °C, 3 days): 2.5 g; Area of leaf (0.0001 mg/l, 5 °C, 6 days): 12 cm^2; Height (0.0001 mg/l, 5 °C, 6 days): 7.4 cm; Weight of root (0.0001 mg/l, 5 °C, 6 days): 2.5 g; Area of leaf (0.0001 mg/l, 5 °C, 9 days): 13.4 cm^2; Height (0.0001 mg/l, 5 °C, 9 days): 7.5 cm; Weight of root (0.0001 mg/l, 5 °C, 9 days): 2.9 g; Area of leaf (0.0001 mg/l, 5 °C, 12 days): 14 cm^2; Height (0.0001 mg/l, 5 °C, 12 days): 7.7 cm; Number of leaf (0.0001 mg/l, 5 °C, 12 days): 3; Number of tiller (0.0001 mg/l, 5 °C, 12 days): 2; Weight of root (0.0001 mg/l, 5 °C, 12 days): 3.0 g; Area of leaf (0.001 mg/l, 1 °C, 3 days): 10 cm^2; Height (0.001 mg/l, 1 °C, 3 days): 6.9 cm; Weight of root (0.001 mg/l, 1 °C, 3 days): 2.8 g; Area of leaf (0.001 mg/l, 1 °C, 6 days): 11.3 cm^2; Height (0.001 mg/l, 1 °C, 6 days): 7.1 cm; Weight of root (0.001 mg/l, 1 °C, 6 days): 3.1 g; Area of leaf (0.001 mg/l, 1 °C, 9 days): 12.6 cm^2; Height (0.001 mg/l, 1 °C, 9 days): 7.1 cm; Weight of root (0.001 mg/l, 1 °C, 9 days): 3.2 g; Area of leaf (0.001 mg/l, 1 °C, 12 days): 13 cm^2; Height (0.001 mg/l, 1 °C, 12 days): 7.3 cm; Number of leaf (0.001 mg/l, 1 °C, 12 days): 3; Number of tiller (0.001 mg/l, 1 °C, 12 days): 3; Weight of root (0.001 mg/l, 1 °C, 12 days): 3.9 g; Area of leaf (0.001 mg/l, 2 °C, 3 days): 9.8 cm^2; Height (0.001 mg/l, 2 °C, 3 days): 6.9 cm; Weight of root (0.001 mg/l, 2 °C, 3 days): 2.8 g

— patent publication US9326506B2, “Preparation method, agricultural composition and applications of natural brassinolide analogs” (CHENGDU NEWSUN CROPSCIENCE CO., LTD, priority 2012, dated 2016)
